According to patent US8557866B2, “Isomeric mixtures of dinitro-octylphenyl esters and synergistic fungicidal mixtures therefrom” (Dow AgroSciences, LLC., priority 2007, dated 2013):

Experiments:
[1] = tested on: Erysiphe cichoracearum (ERYSCI); assay: High volume spray greenhouse test, 1 day protectant, cucumber powdery mildew; type: in vivo, Erysiphe cichoracearum on cucumbers; details: rate 200 ppm
Method: (§1) The composition of Example 1 was evaluated for fungicidal efficacy in a greenhouse on 9 diseases caused by plant pathogenic fungi (TABLE II). The plant cultivars used in this study were Ugni Blanc (grape), Bovowinka (crab apple), HH88 (sugar beet), M-9 (rice) and Yuma (wheat). Broad leaf plants and rice were grown in a soil-less peat-based potting mixture (Metromix), and wheat was grown in a 50/50 mix of mineral soil and Metromix. The wheat was grown at a temperature of 20° C. and all the other plants were grown at 25° C. Apple seeds were soaked in water, incubated for a short time in 200 ppm solution of benlate and washed again with water. The moist seeds were stored in a closed container at 7° C. (45° F.) and washed once a week with water until the radical had emerged 3 mm (approximately 30 days). The seeds were then planted and seedlings with 4-6 leaves were typically ready for inoculation 3 weeks later.
(§2) The composition of Example 1 was applied to seedlings at 100, 50, 25, and 12.5 ppm using a high volume spray application. The composition was formulated in water and serial dilutions made and then brought up to volume by adding water solution. […] Plants were evaluated for percent disease incidence 7-14 days after inoculation and the average percent disease control determined. […]

[2] = tested on: Puccinia recondita (PUCCRT); assay: High volume spray greenhouse test, 1 day protectant, wheat brown rust; type: in vivo, Puccinia recondita on wheat
Method: as §1
The composition of Example 1 was applied to seedlings at 100, 50, 25, and 12.5 ppm using a high volume spray application. The composition was formulated in water and serial dilutions made and then brought up to volume by adding water solution. Plants were sprayed to run off with 15 mL of solution on a turn-table sprayer with two opposing 4JAUPM air atomization nozzles (Spraying Systems) at a pressure of 138 kPa. Volume of spray solution on a per hectare basis is approximately 4000 L/ha. Plants were inoculated with the pathogens 1 day after application of the composition of Example 1 (1 day protectant test), incubated in a dew chamber for 24 hours with 100 percent relative humidity and then moved to an appropriate environment for disease expression for the duration of the test. Three replicate pots were sprayed for each pathogen/composition combination. Plants were evaluated for percent disease incidence 7-14 days after inoculation and the average percent disease control determined.
(§3) Plants were inoculated with various pathogens 1 day after application of the composition of EXAMPLES 1, 4-5 (protectant tests) and 2 days before application for EXAMPLES 6-7 (curative tests). For all wheat trials, compositions were applied at growth stage 1.2, when the second leaf was expanded to ½ of its final size (12 days after seeds were first watered). Information on the growth stages of other plant species at the time composition application and on the propagation and inoculation procedures associated with each pathogen is given below.
(§4) PUCCRT: Spores of the obligate pathogen PUCCRT were collected from infected plants with a vacuum apparatus and stored at 4° C. Approximately 0.1 g of fresh spores (stored at 4° C. for less than 30 days) was mixed with several drops of Tween 20. The thick spore paste was diluted to 100 ml with water and sprayed to run-off on wheat seed seedlings. Plants inoculated with PUCCRT were kept in a 20° C. dew chamber overnight and then transferred to a 20° C. growth chamber where symptoms developed in 8-9 days.

PYRIOR = type: in vivo, PYRIOR on rice; details: rate 200 ppm, high volume test
[3] = tested on: Erysiphe graminis f.sp tritici (ERYSGT); assay: High volume spray greenhouse test, 1 day protectant, wheat powdery mildew; type: in vivo, Erysiphe graminis f.sp tritici on wheat
Method: as §1, §2

[4] = tested on: Uncinula necator (UNCINE); assay: High volume spray greenhouse test, 1 day protectant, grape powdery mildew; type: in vivo, Uncinula necator on grapes
[5] = tested on: Venturia inaequalis (VENTIN); assay: High volume spray greenhouse test, 1 day protectant, apple scab; type: in vivo, Venturia inaequalis on apple
[6] = tested on: wheat brown rust (PUCCRT); assay: Synergy test (Colby), 1 day protectant glasshouse studies against wheat brown rust; type: in vivo, Puccinia recondita on wheat; details: alone, PUCCRT 1 day protectant
Text: as §3, §4
A synergistic effect exists whenever the action of an active ingredient combination is greater than the sum of the action of the individual components.
The action to be expected E for a given active ingredient combination obeys the so-called COLBY formula and can be calculated as follows (COLBY, S. R. “Calculating synergistic and antagonistic responses of herbicide combination”. Weeds, Vol. 15, pages 20-22; 1967)
X=percent action by active ingredient I using p ppm of active ingredient
Y=percent action by active ingredient II using q ppm of active ingredient
According to Colby the expected additive action of active ingredients I+II using p+q ppm of active ingredients is E=X+Y−(X*Y)/100
If the action actual observed (O) is greater than the expected action (E), then the action of the combination is super additive, that is, there is a synergistic effect.
Protectant activity of combinations against wheat brown rust (PUCCRT).
1 day protectant glasshouse studies.

[7] = tested on: wheat powdery mildew (ERYSGT); assay: Synergy test (Colby), 2 day curative glasshouse studies against wheat powdery mildew; type: in vivo, Erysiphe graminis f.sp tritici on wheat; details: alone, ERYSGT 2 day curative

C/C=C/C(=O)Oc1c(C(C)CCCCCC)cc([N+](=O)[O-])cc1[N+](=O)[O-] (centres unmarked) [Ex. 1, 2,4-dinitro-6-(1-methylheptyl)phenyl crotonate]
Percent disease control [1]: ** (** is 50-79 percent control of disease)
Percent disease control ([2]; PUCCRT, rate 200 ppm, high volume test): *** (*** is 80-100 percent control of disease)
Percent Disease Control PUCCRT ([2]; rate 12.5 ppm): * (* is 0-49 percent control of disease)
Percent Disease Control PUCCRT ([2]; rate 25 ppm): * (* is 0-49 percent control of disease)
Percent Disease Control PUCCRT ([2]; rate 50 ppm): ** (** is 50-79 percent control of disease)
Percent Disease Control PUCCRT ([2]; rate 100 ppm): *** (*** is 80-100 percent control of disease)
Percent disease control (PYRIOR): *** (*** is 80-100 percent control of disease)
Percent Disease Control ERYSGT ([3]; rate 50 ppm): *** (*** is 80-100 percent control of disease)
Percent Disease Control ERYSGT ([3]; rate 100 ppm): *** (*** is 80-100 percent control of disease)
Percent Disease Control UNCINE ([4]; rate 12.5 ppm): *** (*** is 80-100 percent control of disease)
Percent Disease Control UNCINE ([4]; rate 25 ppm): *** (*** is 80-100 percent control of disease)
Percent Disease Control UNCINE ([4]; rate 50 ppm): *** (*** is 80-100 percent control of disease)
Percent Disease Control UNCINE ([4]; rate 100 ppm): *** (*** is 80-100 percent control of disease)
Percent Disease Control VENTIN ([5]; rate 12.5 ppm): ** (** is 50-79 percent control of disease)
Percent Disease Control VENTIN ([5]; rate 25 ppm): ** (** is 50-79 percent control of disease)
Percent Disease Control VENTIN ([5]; rate 50 ppm): ** (** is 50-79 percent control of disease)
Percent Disease Control VENTIN ([5]; rate 100 ppm): *** (*** is 80-100 percent control of disease)
Observed Percent CONTROL ([6]; 12.50 ppm): 0.00%
Observed Percent CONTROL ([6]; 25.00 ppm): 11.76%
Observed Percent CONTROL ([6]; 50.00 ppm): 33.33%
Observed Percent CONTROL ([6]; 75.00 ppm): 68.63%
Observed Percent CONTROL ([7]; 75 ppm): 23.00%

OC(c1ccc(Cl)cc1)(c1cncnc1)c1ccccc1Cl (centres unmarked) [Fenarimol, fenarimol, reference compound]
Percent Disease Control VENTIN ([5]; rate 25 ppm): *** (*** is 80-100 percent control of disease)

mancozeb
Observed Percent CONTROL ([6]; 25.00 ppm): 0.00%
Observed Percent CONTROL ([6]; 50.00 ppm): 5.88%
Observed Percent CONTROL ([6]; 100.00 ppm): 58.82%
Observed Percent CONTROL ([6]; 200.00 ppm): 88.24%

CCCCC(C#N)(Cn1cncn1)c1ccc(Cl)cc1 (centres unmarked) [Myclobutanil, myclobutanil]
Observed Percent CONTROL ([6]; 3.13 ppm): 0.00%
Observed Percent CONTROL ([6]; 6.25 ppm): 27.45%
Observed Percent CONTROL ([6]; 12.50 ppm): 74.51%
Observed Percent CONTROL ([6]; 18.75 ppm): 84.31%

CO/C=C(/C(=O)OC)c1ccccc1Oc1cc(Oc2ccccc2C#N)ncn1 [Azoxystrobin, azoxystrobin]
Percent Disease Control UNCINE ([4]; rate 25 ppm): *** (*** is 80-100 percent control of disease)
Observed Percent CONTROL ([7]; 6.25 ppm): 13.00%
Observed Percent CONTROL ([7]; 12.50 ppm): 15.00%
Observed Percent CONTROL ([7]; 25 ppm): 15%
Observed Percent CONTROL ([7]; 75 ppm): 52%
Observed Percent CONTROL ([7]; 100 ppm): 79%

CCCN(CC)CC1COC2(CCC(C(C)(C)C)CC2)O1 (centres unmarked) [Spiroxamine, spiroxamine]
Observed Percent CONTROL ([7]; 12.50 ppm): 15.00%
